Results: patent publication US11976057B2, “MrgX2 antagonists” (GlaxoSmithKline Intellectual Property Development Limited, priority 2020, dated 2024)

molecular target: T1, human MRGPRX2 (Homo sapiens, UniProt Q96LB1); assay: Ca2+ mobilization assay (FLIPR TETRA): inhibition of Cortistatin-14 mediated MRGPRX2 activation
T1 sequence (Q96LB1 1-330): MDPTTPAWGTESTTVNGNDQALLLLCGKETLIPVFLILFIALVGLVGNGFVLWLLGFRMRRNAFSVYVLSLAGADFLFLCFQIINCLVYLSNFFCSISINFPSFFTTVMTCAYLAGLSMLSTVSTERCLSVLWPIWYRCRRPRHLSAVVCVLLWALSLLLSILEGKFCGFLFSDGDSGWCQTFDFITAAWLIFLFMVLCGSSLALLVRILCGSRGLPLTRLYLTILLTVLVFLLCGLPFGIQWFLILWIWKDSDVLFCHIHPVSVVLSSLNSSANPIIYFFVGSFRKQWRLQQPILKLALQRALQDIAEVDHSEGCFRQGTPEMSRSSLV

Structure (SMILES)	IC50 [µM]
C[C@@H](C(=O)Nc1ccc(OCC2CC2)cn1)N1CCC(F)(F)[C@@H](c2ccc(=O)[nH]n2)C1 [Example 145, (S)—N-(5-(cyclopropylmethoxy)pyridin-2-yl)-2-((R)-4,4-difluoro-3-(6-oxo-1,6-dihydropyridazin-3-yl)piperidin-1-yl)propanamide]	0.01 to 0.1
CC(C(=O)Nc1ccc(OC2CC3(CCC3)C2)cn1)N1CCC(F)(F)[C@@H](c2ccc(=O)[nH]c2)C1 (stereo partly drawn) [Example 73, 2-((S)-4,4-difluoro-3-(6-oxo-1,6-dihydropyridin-3-yl)piperidin-1-yl)-N-(5-(spiro[3.3]heptan-2-yloxy)pyridin-2-yl)propanamide]	0.1 to 3.16
CC(C(=O)Nc1ccc(Oc2ccncc2)cn1)N1CCC(F)(F)[C@@H](c2ccc(=O)[nH]c2)C1 (stereo partly drawn) [Example 64, 2-((S)-4,4-difluoro-3-(6-oxo-1,6-dihydropyridin-3-yl)piperidin-1-yl)-N-(5-(pyridin-4-yloxy)pyridin-2-yl)propanamide]	0.1 to 3.16
C[C@@H](C(=O)Nc1ccc(-c2ccccc2)cn1)N1CCC(F)(F)[C@@H](c2ccc(=O)[nH]c2)C1 [Example 23, (S)-2-((S)-4,4-difluoro-3-(6-oxo-1,6-dihydropyridin-3-yl)piperidin-1-yl)-N-(5-phenylpyridin-2-yl)propanamide]	0.1 to 3.16
CC(Oc1ccc(NC(=O)C(C)N2CCC(F)(F)[C@@H](c3ccc(=O)[nH]c3)C2)nc1)C1CC1 (stereo partly drawn) [Example 31, N-(5-(1-cyclopropyl-ethoxy)pyridin-2-yl)-2-((S)-4,4-difluoro-3-(6-oxo-1,6-dihydropyridin-3-yl)piperidin-1-yl)propanamide]	0.1 to 3.16
C[C@@H](C(=O)Nc1ccc(Cl)cn1)N1CCC(F)(F)[C@@H](c2c[nH]c(=O)c(N)n2)C1 [Example 107, (S)-2-((R)-3-(6-amino-5-oxo-4,5-dihydropyrazin-2-y1)-4,4-difluoropiperidin-l-y1)-N-(5-chloropyridin-2-yl)propanamide]	0.1 to 3.16
C[C@@H](C(=O)Nc1ccc(OCC2CC2)cn1)N1CCC(F)(F)[C@@H](c2c[nH]c(=O)c(N)c2)C1 [Example 138, (S)-2-((S)-3-(5-amino-6-oxo-1,6-dihydropyridin-3-yl)-4,4-difluoropiperidin-1-yl)-N-(5-(cyclopropylmethoxy)pyridin-2-yl)propanamide]	0.01 to 0.1
C[C@@H](C(=O)Nc1ccc(OCC2CC2)nn1)N1CCC(F)(F)[C@@H](c2ccc(=O)n(CC(F)(F)F)c2)C1 [Example 1, (S)—N-(6-(cyclopropylmethoxy)pyridazin-3-yl)-2-((S)-4,4-difluoro-3-(6-oxo-1-(2,2,2-trifluoroethyl)-1,6-dihydropyridin-3-yl)piperidin-1-yl)propanamide]	≤ 0.01

Further lines, results first:

IC50 [µM]	Structure (SMILES)
≤ 0.01	CC(=O)NCc1cc([C@H]2CN([C@@H](C)C(=O)Nc3ccc(Oc4ccc(F)cc4)cn3)CCC2(F)F)c[nH]c1=O (single isomer, unassigned) [Example 245]
≤ 0.01	C[C@@H](C(=O)Nc1ccc(Oc2ccc(F)cn2)cn1)[C@H]1CCC(F)(F)[C@@H](c2ccc(=O)[nH]c2)C1 [Example 279, (R)-2-((1S,3R)-4,4-difluoro-3-(6-oxo-1,6-dihydropyridin-3-yl)cyclohexyl)-N-(5-((5-fluoropyridin-2-yl)oxy)pyridin-2-yl)propanamide]
0.1 to 3.16	C[C@H]1C[C@@H](c2ccc(=O)[nH]n2)CN([C@@H](C)C(=O)Nc2ccc(F)cn2)C1 [Example 162, (S)—N-(5-fluoropyridin-2-yl)-2-((3S,5R)-3-methyl-5-(6-oxo-1,6-dihydropyridazin-3-yl)piperidin-1-yl)propanamide]
≤ 0.01	C[C@@H](C(=O)Nc1ccc(OCC2CC2)cn1)N1CCC(F)(F)[C@@H](c2ccc(=O)n(CC(F)(F)F)c2)C1 (single isomer, unassigned) [Example 2]
3.16 to 31.6	Cc1cc([C@@H]2CCCN([C@@H](C)C(=O)Nc3ccc(Cl)cn3)C2)c[nH]c1=O (single isomer, unassigned) [Example 184]
